Converted amounts (≈) assume the structure as drawn. “And” between values parts separate entries of the source, which are not always exact repeats. Identical values can stand only once. Counter-ions that a name gives are not always drawn. Like-named read-outs stand apart in the source and are kept apart here.
Assays:
K. pneumoniae 700603 [1] = test: Microbroth MIC, K. pneumoniae 700603; format: cell-based; settings: Klebsiella pneumoniae; K. pneumoniae 700603 (SHV-18)
K. pneumoniae 79 [2] = test: Microbroth MIC, K. pneumoniae 79; format: cell-based, Klebsiella pneumoniae
E. cloacae 0002 [3] = test: Agar MIC, E. cloacae 0002; format: cell-based, Enterobacter cloacae
K. pneumoniae 79 [4] = test: Agar MIC, K. pneumoniae 79; format: cell-based, Klebsiella pneumoniae
K. pneumoniae 4582 [5] = test: Microbroth MIC, K. pneumoniae 4582; format: cell-based, Klebsiella pneumoniae
E. cloacae 4184 [6] = test: Agar MIC, E. cloacae 4184; format: cell-based; settings: Enterobacter cloacae; E. cloacae 4184 (De-repressed AmpC)
E. coli ATCC 35218 [7] = test: Agar MIC, E. coli ATCC 35218; format: cell-based; settings: Escherichia coli, ATCC35218; E. coli ATCC 35218 (TEM-1 Quality Control Strain)
E. coli 136-4643 [8] = test: Microbroth MIC, E. coli 136-4643; format: cell-based; settings: Escherichia coli, 1364643; E. coli 136-4643 (CTX-M-15)
[9] = tested on: K. pneumoniae ATCC BAA-1705; test: Microbroth MIC, K. pneumoniae ATCC BAA-1705; format: cell-based; settings: Klebsiella pneumoniae
E. cloacae 0060 [10] = test: Agar MIC, E. cloacae 0060; format: cell-based; settings: Enterobacter cloacae; E. cloacae 0060 (cAmpC)
[11] = Sprague-Dawley rats; cited from earlier work
K. pneumoniae 700603 [12] = test: Agar MIC, K. pneumoniae 700603; format: cell-based; settings: Klebsiella pneumoniae; K. pneumoniae 700603 (SHV-18)
E. cloacae 0065 [13] = test: Microbroth MIC, E. cloacae 0065; format: cell-based; settings: Enterobacter cloacae; E. cloacae 0065 (cAmpC)
K. pneumoniae 4582 [14] = test: Agar MIC, K. pneumoniae 4582; format: cell-based, Klebsiella pneumoniae
K. pneumoniae 908 [15] = test: Agar MIC, K. pneumoniae 908; format: cell-based, Klebsiella pneumoniae
K. pneumoniae 19701 [16] = test: Agar MIC, K. pneumoniae 19701; format: cell-based, Klebsiella pneumoniae
K. pneumoniae 27144 [17] = test: Agar MIC, K. pneumoniae 27144; format: cell-based; settings: Klebsiella pneumoniae; K. pneumoniae 27144 (CTX-M-15, OXA-1, OXA-48, SHV-11, TEM-1)
K. pneumoniae 27144 [18] = test: Microbroth MIC, K. pneumoniae 27144; format: cell-based; settings: Klebsiella pneumoniae; K. pneumoniae 27144 (CTX-M-15, OXA-1, OXA-48, SHV-11, TEM-1)
K. pneumoniae 908 [19] = test: Microbroth MIC, K. pneumoniae 908; format: cell-based, Klebsiella pneumoniae
[20] = cited from earlier work
K. pneumoniae 19701 [21] = test: Microbroth MIC, K. pneumoniae 19701; format: cell-based, Klebsiella pneumoniae
E. cloacae 0060 [22] = test: Microbroth MIC, E. cloacae 0060; format: cell-based; settings: Enterobacter cloacae; E. cloacae 0060 (cAmpC)
E. coli ATCC 25922 [23] = test: Microbroth MIC, E. coli ATCC 25922; format: cell-based; settings: Escherichia coli, ATCC25922
E. cloacae 4182 [24] = test: Microbroth MIC, E. cloacae 4182; format: cell-based; settings: Enterobacter cloacae; E. cloacae 4182 (De-repressed AmpC)
E. cloacae 4182 [25] = test: Agar MIC, E. cloacae 4182; format: cell-based; settings: Enterobacter cloacae; E. cloacae 4182 (De-repressed AmpC)
E. cloacae 0002 [26] = test: Microbroth MIC, E. cloacae 0002; format: cell-based, Enterobacter cloacae
K. pneumoniae 15160 [27] = test: Agar MIC, K. pneumoniae 15160; format: cell-based; settings: Klebsiella pneumoniae; K. pneumoniae 15160 (CTX-M-15, CTX-M-2, OXA-10, OXA-1, SHV-11, TEM-1)
E. coli 470-21711 [28] = test: Microbroth MIC, E. coli 470-21711; format: cell-based; settings: Escherichia coli, 47021711; E. coli 470-21711 (CTX-M-15)
E. cloacae 4184 [29] = test: Microbroth MIC, E. cloacae 4184; format: cell-based; settings: Enterobacter cloacae; E. cloacae 4184 (De-repressed AmpC)
E. coli 470-21711 [30] = test: Agar MIC, E. coli 470-21711; format: cell-based; settings: Escherichia coli, 47021711; E. coli 470-21711 (CTX-M-15)
E. cloacae 0065 [31] = test: Agar MIC, E. cloacae 0065; format: cell-based; settings: Enterobacter cloacae; E. cloacae 0065 (cAmpC)
[32] = human; cited from earlier work
E. coli ATCC 25922 [33] = test: Agar MIC, E. coli ATCC 25922; format: cell-based; settings: Escherichia coli, ATCC25922; E. coli ATCC 25922 (Wildtype)
E. coli 136-4643 [34] = test: Agar MIC, E. coli 136-4643; format: cell-based; settings: Escherichia coli, 1364643; E. coli 136-4643 (CTX-M-15)
E. coli ATCC 35218 [35] = test: Microbroth MIC, E. coli ATCC 35218; format: cell-based; settings: Escherichia coli, ATCC35218; E. coli ATCC 35218 (TEM-1 Quality Control Strain)
K. pneumoniae 15160 [36] = test: Microbroth MIC, K. pneumoniae 15160; format: cell-based; settings: Klebsiella pneumoniae; K. pneumoniae 15160 (CTX-M-15, CTX-M-2, OXA-10, OXA-1, SHV-11, TEM-1)
E. coli 136-4643 [37] = test: One-compartment in vitro infection (chemostat) model, E. coli 136-4643; format: cell-based, Escherichia coli; settings: E. coli 4643; for Average Log10 CFU/mL (+/− Range of Data), 5 × Ceftibuten + Avibactam at 4 mg/L MIC: Ceftibuten 400 mg q8h
[38] = E. coli ATCC 25922 (Wildtype), read-out: Microbroth MIC

Row | Compound | MIC (K. pneumoniae 700603 [1]) [µg/mL] | MIC (E. cloacae 4184 [6]) [µg/mL] | MIC (E. coli ATCC 35218 [7]) [µg/mL] | MIC (E. coli 136-4643 [8]) [µg/mL] | MIC (E. cloacae 0060 [10]) [µg/mL] | MIC (K. pneumoniae 700603 [12]) [µg/mL] | MIC (E. cloacae 0065 [13]) [µg/mL] | MIC (K. pneumoniae 27144 [17]) [µg/mL] | MIC (K. pneumoniae 27144 [18]) [µg/mL] | MIC (E. cloacae 0060 [22]) [µg/mL] | MIC (E. coli ATCC 25922 [23]; [38]) [µg/mL] | MIC (E. cloacae 4182 [24]) [µg/mL] | MIC (E. cloacae 4182 [25]) [µg/mL] | MIC (K. pneumoniae 15160 [27]) [µg/mL] | MIC (E. coli 470-21711 [28]) [µg/mL] | MIC (E. cloacae 4184 [29]) [µg/mL] | MIC (E. coli 470-21711 [30]) [µg/mL] | MIC (E. cloacae 0065 [31]) [µg/mL] | MIC (E. coli ATCC 25922 [33]) [µg/mL] | MIC (E. coli 136-4643 [34]) [µg/mL] | also measured
1 | NC(=O)[C@@H]1CC[C@@H]2CN1C(=O)N2OS(=O)(=O)O [avibactam, [2S,5R]-2-carbamoyl-7-oxo-1,6-diazabicyclo[3.2.1]octan-6-yl hydrogen sulfate] | 64 | 16 | 8 | 256 | 16 | 64 | 16 | 64 | 512 | 32 | 16 | 32 | 16 | 16 | 16 | 32 | 8 | 8 | 8 | 8 | Microbroth MIC (K. pneumoniae 79 [2]; K. pneumoniae 79 (KPC-3, FOX-5, TEM-1 SHV-11), listed as AVI): 16 µg/mL and 32 µg/mL; MIC (E. cloacae 0002 [3]; Enterobacter cloacae, E. cloacae 0002 (KPC-3, OXA-9, TEM-1A), read-out: agar MIC): 16 µg/mL; MIC (K. pneumoniae 79 [4]; Klebsiella pneumoniae, K. pneumoniae 79 (KPC-3, FOX-5, TEM-1 SHV-11), read-out: agar MIC): 16 µg/mL; Microbroth MIC (K. pneumoniae 4582 [5]; K. pneumoniae 4582 (KPC-3), listed as AVI): 64 µg/mL and 32 µg/mL; MIC ([9]; ATCCBAA1705, K. pneumoniae ATCC BAA-1705 (KPC-2), read-out: Microbroth MIC): 16 µg/mL; avibactam oral bioavailability (% F) [11]: 1.2 % F; MIC (K. pneumoniae 4582 [14]; Klebsiella pneumoniae, K. pneumoniae 4582 (KPC-3), read-out: agar MIC): 8 µg/mL; MIC (K. pneumoniae 908 [15]; Klebsiella pneumoniae, K. pneumoniae 908 (KPC-2, SHV-27, TEM-1), read-out: agar MIC): 128 µg/mL; MIC (K. pneumoniae 19701 [16]; Klebsiella pneumoniae, K. pneumoniae 19701 (KPC-2), read-out: agar MIC): 32 µg/mL; MIC (K. pneumoniae 908 [19]; Klebsiella pneumoniae, K. pneumoniae 908 (KPC-2, SHV-27, TEM-1), read-out: Microbroth MIC): 128 µg/mL; plasma protein binding ([20]; assumed for free-drug profiles): 6.95%; MIC (K. pneumoniae 19701 [21]; Klebsiella pneumoniae, K. pneumoniae 19701 (KPC-2), read-out: Microbroth MIC): > 512 µg/mL; MIC (E. cloacae 0002 [26]; Enterobacter cloacae, E. cloacae 0002 (KPC-3, OXA-9, TEM-1A), read-out: Microbroth MIC): 32 µg/mL; oral bioavailability [32]: about 6 % F; MIC (E. coli ATCC 35218 [35]): 16 µg/mL
2 | Nc1nc(/C(=C/CC(=O)O)C(=O)N[C@@H]2C(=O)N3C(C(=O)O)=CCS[C@H]23)cs1 [ceftibuten, (6R,7R)-7-((Z)-2-(2-amino-4-thiazolyl)-4-carboxycrotonamido)-8-oxo-5-thia-1-azabicyclo(4.2.0)oct-2-ene-2-carboxylic acid] | 0.5 (≈ 1.22 µM) | > 64 | 0.125 (≈ 0.305 µM) | 32 (≈ 78 µM) | > 64 | 0.5 (≈ 1.22 µM) | > 64 | 32 (≈ 78 µM) | 64 (≈ 156 µM) | > 64 | 0.5 (≈ 1.22 µM) | > 64 | > 64 | 32 (≈ 78 µM) | 64 (≈ 156 µM) | > 64 | 32 (≈ 78 µM) | > 64 | 0.5 (≈ 1.22 µM) | 8 (≈ 19.5 µM) | MIC (K. pneumoniae 79 [2]; Klebsiella pneumoniae, 79, read-out: Microbroth MIC): > 64 µg/mL; MIC (E. cloacae 0002 [3]; Enterobacter cloacae, 0002, read-out: agar MIC): 16 µg/mL (≈ 39 µM); MIC (K. pneumoniae 79 [4]; Klebsiella pneumoniae, 79, read-out: agar MIC): 64 µg/mL (≈ 156 µM); MIC (K. pneumoniae 4582 [5]; Klebsiella pneumoniae, 4582, read-out: Microbroth MIC): 32 µg/mL (≈ 78 µM); MIC ([9]; ATCCBAA1705, read-out: Microbroth MIC): 16 µg/mL (≈ 39 µM); MIC (K. pneumoniae 15160 [36]): 64 µg/mL (≈ 156 µM); MIC (K. pneumoniae 4582 [14]; Klebsiella pneumoniae, 4582, read-out: agar MIC): 16 µg/mL (≈ 39 µM); MIC (K. pneumoniae 908 [15]; Klebsiella pneumoniae, 908, read-out: agar MIC): 32 µg/mL (≈ 78 µM); MIC (K. pneumoniae 19701 [16]; Klebsiella pneumoniae, 19701, read-out: agar MIC): 32 µg/mL (≈ 78 µM); MIC (K. pneumoniae 908 [19]; Klebsiella pneumoniae, 908, read-out: Microbroth MIC): 32 µg/mL (≈ 78 µM); plasma protein binding ([20]; plasma): 65.0%; MIC (K. pneumoniae 19701 [21]; Klebsiella pneumoniae, 19701, read-out: Microbroth MIC): 64 µg/mL (≈ 156 µM); MIC (E. coli ATCC 25922 [23]; E. coli ATCC 25922 (Wild type), read-out: MIC): 0.5 µg/mL (≈ 1.22 µM); MIC (E. cloacae 0002 [26]; Enterobacter cloacae, 0002, read-out: Microbroth MIC): 32 µg/mL (≈ 78 µM); Average Log10 CFU/mL (+/− Range of Data), 5 × Ceftibuten + Avibactam at 4 mg/L MIC (E. coli 136-4643 [37]; 0 h): 0 (0) Log10 CFU/mL; Average Log10 CFU/mL (+/− Range of Data), 5 × Ceftibuten + Avibactam at 4 mg/L MIC (E. coli 136-4643 [37]; 24 h): 0 (0) Log10 CFU/mL; bacterial burden response over 24 hours (E. coli 136-4643 [37]; ceftibuten 400 mg q8h monotherapy, first 4 hours, regrowth matching control by 12 hours): slight initial reduction in bacterial burden; MIC (E. coli ATCC 35218 [35]): 0.125 µg/mL (≈ 0.305 µM)

Reference: patent US20210060033A1, “ORALLY ADMINISTERED COMBINATIONS OF BETA-LACTAM ANTIBIOTICS AND AVIBACTAM DERIVATIVES FOR TREATING BACTERIAL INFECTIONS” (priority 2019, published 2021)
